Molecular target: URAT-1 transporter (Homo sapiens (Human), UniProt Q96S37)
Test: URAT-1 inhibitor activity: [14C]-uric acid uptake in CHO-URAT1(L)GFP#8 (CHO#8) cells, scintillation proximity
Type: cell-based
Details: inhibition of [14C]-uric acid (30 nM) uptake into CHO#8 cells; compound 0 to 10 μM; 4 parameter logistic fit
How it was run: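 CHO cells stably expressing human URAT1 long isoform–eGFP fusion, pre-incubated 1 h in chloride-containing buffer pH 7.4, then given 30 nM [14C]-uric acid with compound (0–10 μM, 0.25% DMSO) in chloride-free gluconate buffer pH 7.4. Uptake measured by scintillation proximity on Cytostar plates.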

Sequence of URAT-1 transporter (Q96S37 other isoform, or with tags, fused parts or gaps): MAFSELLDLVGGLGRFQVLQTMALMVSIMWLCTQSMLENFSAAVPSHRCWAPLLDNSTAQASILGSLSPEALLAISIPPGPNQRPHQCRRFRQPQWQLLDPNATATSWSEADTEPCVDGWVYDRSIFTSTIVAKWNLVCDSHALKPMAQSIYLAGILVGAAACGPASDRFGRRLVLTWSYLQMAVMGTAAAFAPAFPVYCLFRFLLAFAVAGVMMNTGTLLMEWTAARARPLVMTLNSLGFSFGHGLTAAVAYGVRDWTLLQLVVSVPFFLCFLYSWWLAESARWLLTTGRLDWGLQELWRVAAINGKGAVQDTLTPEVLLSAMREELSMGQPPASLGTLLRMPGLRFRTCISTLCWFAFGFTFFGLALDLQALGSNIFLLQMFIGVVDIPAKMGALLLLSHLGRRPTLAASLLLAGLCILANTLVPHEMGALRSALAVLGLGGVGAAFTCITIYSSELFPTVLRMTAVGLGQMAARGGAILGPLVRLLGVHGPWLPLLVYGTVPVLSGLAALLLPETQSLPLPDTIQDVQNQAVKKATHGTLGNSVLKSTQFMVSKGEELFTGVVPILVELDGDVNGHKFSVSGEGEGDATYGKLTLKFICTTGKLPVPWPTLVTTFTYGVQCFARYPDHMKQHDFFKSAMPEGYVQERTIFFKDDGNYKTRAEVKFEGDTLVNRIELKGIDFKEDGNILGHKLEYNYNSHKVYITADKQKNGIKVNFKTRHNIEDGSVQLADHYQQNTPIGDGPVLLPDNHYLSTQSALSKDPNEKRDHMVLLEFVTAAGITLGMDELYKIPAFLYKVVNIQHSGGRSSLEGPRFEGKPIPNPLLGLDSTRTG

**Q.** For `Cc1cc(Cl)c(Oc2ccc(S(=O)(=O)Nc3ccc(F)cn3)cc2C#N)cc1C#N` [Example 26, 4-(2-chloro-5-cyano-4-methylphenoxy)-3-cyano-N-(5-fluoropyridin-2-yl)benzenesulfonamide], which IC50 is on record?
**A.** 57 nM

**Q.** How did the IC50 turn out when `COc1ccc(Oc2ccc(S(=O)(=O)Nc3ccc(F)cn3)cc2C#N)cc1` [Example 188, 3-cyano-N-(5-fluoropyridin-2-yl)-4-(4-methoxyphenoxy)benzenesulfonamide] was run?
**A.** 3740 nM

**Q.** For `CC(C)COc1ccc(Oc2ccc(S(=O)(=O)Nc3ccc(F)cn3)cc2C#N)cn1` [Example 121, 3-cyano-N-(5-fluoropyridin-2-yl)-4-{[6-(2-methylpropoxy)pyridin-3-yl]oxy}benzenesulfonamide], which IC50 is on record?
**A.** > 10000 nM

**Q.** `CCOc1ccc(Oc2ccc(S(=O)(=O)Nc3ccc(F)cn3)cc2C#N)cc1` [Example 153, 3-cyano-4-(4-ethoxyphenoxy)-N-(5-fluoropyridin-2-yl)benzenesulfonamide] was tested. Which IC50 did it give?
**A.** > 10000 nM

**Q.** With `COc1c(Oc2ccc(S(=O)(=O)Nc3ccc(F)cn3)cc2C#N)ccc(F)c1C` [Example 173, 3-cyano-4-(4-fluoro-2-methoxy-3-methylphenoxy)-N-(5-fluoropyridin-2-yl)benzenesulfonamide] as the molecule, how does the IC50 read?
**A.** 131 nM

**Q.** How did the IC50 turn out when `N#Cc1cc(S(=O)(=O)Nc2ccc(F)cn2)ccc1Oc1ccc(C(F)(F)F)cc1` [Example 54, 3-cyano-N-(5-fluoropyridin-2-yl)-4-[4-(trifluoromethyl)phenoxy]benzenesulfonamide] was run?
**A.** > 10000 nM

**Q.** With `CCc1ccccc1Oc1ccc(S(=O)(=O)Nc2ccc(F)cn2)cc1C#N` [Example 46, 3-cyano-4-(2-ethylphenoxy)-N-(5-fluoropyridin-2-yl)benzenesulfonamide] as the molecule, how does the IC50 read?
**A.** 107 nM

**Q.** Which IC50 does the source give for `N#Cc1cc(Oc2cc(F)c(S(=O)(=O)Nc3ncc(F)cn3)cc2Cl)ccc1F` [compound 214] here?
**A.** > 1150 nM

**Q.** How did the IC50 turn out when `COc1cc(Cl)ccc1Oc1ccc(S(=O)(=O)Nc2cccnn2)cc1Cl` [Example 81, 3-chloro-4-(4-chloro-2-methoxyphenoxy)-N-(pyridazin-3-yl)benzenesulfonamide] was run?
**A.** > 10000 nM

**Q.** For `Cc1ccc(F)c(Oc2ccc(S(=O)(=O)Nc3ccc(F)cn3)cc2C#N)c1Cl` [Example 108, 4-(2-chloro-6-fluoro-3-methylphenoxy)-3-cyano-N-(5-fluoropyridin-2-yl)benzenesulfonamide], which IC50 is on record?
**A.** 98 nM

**Q.** For `Cc1c(F)ccc(Oc2ccc(S(=O)(=O)Nc3ccc(F)cn3)cc2C#N)c1Cl` [Example 147, 4-(2-chloro-4-fluoro-3-methylphenoxy)-3-cyano-N-(5-fluoropyridin-2-yl)benzenesulfonamide], which IC50 is on record?
**A.** 187 nM

**Q.** With `N#Cc1c(Cl)cccc1Oc1ccc(S(=O)(=O)Nc2ccncc2)cc1` [Example 217, 4-(3-chloro-2-cyanophenoxy)-N-(pyridin-4-yl)benzenesulfonamide] as the molecule, how does the IC50 read?
**A.** > 10000 nM

**Q.** How did the IC50 turn out when `N#Cc1cc(S(=O)(=O)Nc2ccc(F)cn2)ccc1Oc1ccc(F)cc1` [Example 183, 3-cyano-4-(4-fluorophenoxy)-N-(5-fluoropyridin-2-yl)benzenesulfonamide] was run?
**A.** 183 nM

**Q.** With `N#Cc1ccc(Oc2ccc(S(=O)(=O)Nc3ccc(F)cn3)cc2C#N)c(OC(F)F)c1` [Example 67, 3-cyano-4-[4-cyano-2-(difluoromethoxy)phenoxy]-N-(5-fluoropyridin-2-yl)benzenesulfonamide] as the molecule, how does the IC50 read?
**A.** 3520 nM

**Q.** How did the IC50 turn out when `Cc1ccncc1Oc1ccc(S(=O)(=O)Nc2ccc(F)cn2)cc1C#N` [Example 198, 3-cyano-N-(5-fluoropyridin-2-yl)-4-[(4-methylpyridin-3-yl)oxy]benzenesulfonamide] was run?
**A.** 792 nM

**Q.** Which IC50 does the source give for `N#Cc1cc(S(=O)(=O)Nc2ccc(F)cn2)ccc1Oc1ccc(Cl)cc1F` [Example 47, 4-(4-chloro-2-fluorophenoxy)-3-cyano-N-(5-fluoropyridin-2-yl)benzenesulfonamide] here?
**A.** 50 nM

**Q.** For `CC(C)(O)c1ccc(Oc2ccc(S(=O)(=O)Nc3ccc(F)cn3)cc2C#N)cc1` [compound 234], which IC50 is on record?
**A.** 1150 nM

**Q.** For `N#Cc1cc(S(=O)(=O)Nc2ccc(F)cn2)ccc1Oc1cncc(Cl)c1` [Example 202, 4-[(5-chloropyridin-3-yl)oxy]-3-cyano-N-(5-fluoropyridin-2-yl)benzenesulfonamide], which IC50 is on record?
**A.** 37 nM

**Q.** How did the IC50 turn out when `CCc1cccc(Oc2ccc(S(=O)(=O)Nc3ccc(F)cn3)cc2C#N)c1` [Example 2, 3-cyano-4-(3-ethylphenoxy)-N-(5-fluoropyridin-2-yl)benzenesulfonamide] was run?
**A.** > 10000 nM

**Q.** For `Cc1cccc(Cl)c1Oc1ccc(S(=O)(=O)Nc2ccc(F)cn2)cc1C#N` [Example 123, 4-(2-chloro-6-methylphenoxy)-3-cyano-N-(5-fluoropyridin-2-yl)benzenesulfonamide], which IC50 is on record?
**A.** 91 nM

**Q.** With `COc1ccc(Oc2ccc(S(=O)(=O)Nc3ccc(F)cn3)cc2C#N)c(Cl)c1` [Example 168, 4-(2-chloro-4-methoxyphenoxy)-3-cyano-N-(5-fluoropyridin-2-yl)benzenesulfonamide] as the molecule, how does the IC50 read?
**A.** 612 nM

**Q.** `N#Cc1cc(S(=O)(=O)Nc2ccc(F)cn2)ccc1Oc1ccc(N)cc1` [Example 224, 4-(4-aminophenoxy)-3-cyano-N-(5-fluoropyridin-2-yl)benzenesulfonamide] was tested. Which IC50 did it give?
**A.** > 10000 nM

**Q.** For `N#Cc1cc(S(=O)(=O)Nc2ccc(F)cn2)ccc1Oc1ccc(F)cc1Cl` [Example 31, 4-(2-chloro-4-fluorophenoxy)-3-cyano-N-(5-fluoropyridin-2-yl)benzenesulfonamide], which IC50 is on record?
**A.** 78 nM

**Q.** For `Cc1cccc(C)c1Oc1ccc(S(=O)(=O)Nc2ccc(F)cn2)cc1C#N` [Example 152, 3-cyano-4-(2,6-dimethylphenoxy)-N-(5-fluoropyridin-2-yl)benzenesulfonamide], which IC50 is on record?
**A.** 50 nM

**Q.** Which IC50 does the source give for `COc1ccc(Oc2ccc(S(=O)(=O)Nc3ccc(F)cn3)cc2C#N)cn1` [Example 199, 3-cyano-N-(5-fluoropyridin-2-yl)-4-[(6-methoxypyridin-3-yl)oxy]benzenesulfonamide] here?
**A.** 129 nM

**Q.** `N#Cc1c(Cl)cccc1Oc1ccc(S(=O)(=O)Nc2cccnc2)cc1` [Example 219, 4-(3-chloro-2-cyanophenoxy)-N-(pyridin-3-yl)benzenesulfonamide] was tested. Which IC50 did it give?
**A.** > 10000 nM

**Q.** Which IC50 does the source give for `N#Cc1cc(S(=O)(=O)Nc2ccc(F)cn2)ccc1Oc1cc(F)c(C#N)c(Cl)c1` [compound 237, 4-(3-chloro-4-cyano-5-fluorophenoxy)-3-cyano-N-(5-fluoropyridin-2-yl)benzenesulfonamide] here?
**A.** 8 nM

**Q.** For `N#Cc1cc(S(=O)(=O)Nc2ccc(F)cn2)ccc1Oc1cc(Cl)c(F)cc1Cl` [Example 107, 3-cyano-4-(2,5-dichloro-4-fluorophenoxy)-N-(5-fluoropyridin-2-yl)benzenesulfonamide], which IC50 is on record?
**A.** 58 nM

**Q.** Which IC50 does the source give for `N#Cc1ccc(Oc2cc(F)c(S(=O)(=O)Nc3ccc(F)cn3)cc2F)cc1F` [Example 95, 4-(4-cyano-3-fluorophenoxy)-2,5-difluoro-N-(5-fluoropyridin-2-yl)benzenesulfonamide] here?
**A.** > 10000 nM

**Q.** How did the IC50 turn out when `N#Cc1cc(S(=O)(=O)Nc2ccc(F)cn2)ccc1Oc1cccc(C(F)(F)F)c1` [Example 23, 3-cyano-N-(5-fluoropyridin-2-yl)-4-[3-(trifluoromethyl)phenoxy]benzenesulfonamide] was run?
**A.** > 10000 nM

**Q.** For `N#Cc1cc(S(=O)(=O)Nc2ccc(F)cn2)ccc1Oc1cnc(C#N)c(Cl)c1` [Example 68, 4-[(5-chloro-6-cyanopyridin-3-yl)oxy]-3-cyano-N-(5-fluoropyridin-2-yl)benzenesulfonamide], which IC50 is on record?
**A.** 155 nM

**Q.** Which IC50 does the source give for `N#Cc1cc(S(=O)(=O)Nc2ccc(F)cn2)ccc1Oc1ccc(Cl)c(CO)c1` [compound 240] here?
**A.** 106 nM

**Q.** Which IC50 does the source give for `CC(C)Oc1ccccc1Oc1ccc(S(=O)(=O)Nc2ccc(F)cn2)cc1C#N` [Example 207, 3-cyano-N-(5-fluoropyridin-2-yl)-4-[2-(propan-2-yloxy)phenoxy]benzenesulfonamide] here?
**A.** > 10000 nM

**Q.** For `N#Cc1cc(Cl)ccc1Oc1ccc(S(=O)(=O)Nc2ccc(F)cn2)cc1C#N` [Example 45, 4-(4-chloro-2-cyanophenoxy)-3-cyano-N-(5-fluoropyridin-2-yl)benzenesulfonamide], which IC50 is on record?
**A.** 174 nM

**Q.** With `N#Cc1cc(S(=O)(=O)Nc2ccc(F)cn2)ccc1Oc1c(F)cccc1F` [Example 124, 3-cyano-4-(2,6-difluorophenoxy)-N-(5-fluoropyridin-2-yl)benzenesulfonamide] as the molecule, how does the IC50 read?
**A.** > 10000 nM

**Q.** Which IC50 does the source give for `Cc1ccnc(NS(=O)(=O)c2ccc(Oc3cccc(Cl)c3C#N)cc2)c1` [Example 216, 4-(3-chloro-2-cyanophenoxy)-N-(4-methylpyridin-2-yl)benzenesulfonamide] here?
**A.** > 10000 nM

**Q.** With `N#Cc1c(Cl)cccc1Oc1ccc(S(=O)(=O)Nc2cnccn2)cc1` [Example 223, 4-(3-chloro-2-cyanophenoxy)-N-(pyrazin-2-yl)benzenesulfonamide] as the molecule, how does the IC50 read?
**A.** > 10000 nM

**Q.** With `COc1cc(C#N)ccc1Oc1ccc(S(=O)(=O)Nc2ccc(F)cn2)cc1C#N` [Example 204, 3-cyano-4-(4-cyano-2-methoxyphenoxy)-N-(5-fluoropyridin-2-yl)benzenesulfonamide] as the molecule, how does the IC50 read?
**A.** > 10000 nM

**Q.** How did the IC50 turn out when `N#Cc1cc(S(=O)(=O)Nc2ccc(F)cn2)ccc1Oc1cc(F)c(F)cc1F` [Example 130, 3-cyano-N-(5-fluoropyridin-2-yl)-4-(2,4,5-trifluorophenoxy)benzenesulfonamide] was run?
**A.** 119 nM

**Q.** Which IC50 does the source give for `N#Cc1c(Cl)cccc1Oc1ccc(S(=O)(=O)Nc2ccccn2)cc1` [Example 218, 4-(3-chloro-2-cyanophenoxy)-N-(pyridin-2-yl)benzenesulfonamide] here?
**A.** > 10000 nM

**Q.** How did the IC50 turn out when `Cc1ccc(Oc2ccc(S(=O)(=O)Nc3ccc(F)cn3)cc2C#N)c(Cl)c1C` [Example 178, 4-(2-chloro-3,4-dimethylphenoxy)-3-cyano-N-(5-fluoropyridin-2-yl)benzenesulfonamide] was run?
**A.** > 10000 nM

**Q.** Which IC50 does the source give for `N#Cc1cc(S(=O)(=O)Nc2ccc(F)cn2)ccc1Oc1ccccc1OC(F)(F)F` [Example 27, 3-cyano-N-(5-fluoropyridin-2-yl)-4-[2-(trifluoromethoxy)phenoxy]benzenesulfonamide] here?
**A.** 274 nM

**Q.** `Cc1ncccc1Oc1ccc(S(=O)(=O)Nc2ccc(F)cn2)cc1C#N` [Example 184, 3-cyano-N-(5-fluoropyridin-2-yl)-4-[(2-methylpyridin-3-yl)oxy]benzenesulfonamide] was tested. Which IC50 did it give?
**A.** 385 nM
